The text below walks through data of patent US7045532B2 (Millennium Pharmaceuticals, Inc., priority 1999, dated 2006).

For the first experiment, the target named is T1, ACE-2 (Homo sapiens, UniProt Q9BYF1).
T1 construct: a stop codon inserted after the serine immediately preceding the transmembrane domain; made in house; host or cells: CHO K1 cells (transient transfection, purified from conditioned medium)
T1 sequence (Q9BYF1 18-740 limits assumed): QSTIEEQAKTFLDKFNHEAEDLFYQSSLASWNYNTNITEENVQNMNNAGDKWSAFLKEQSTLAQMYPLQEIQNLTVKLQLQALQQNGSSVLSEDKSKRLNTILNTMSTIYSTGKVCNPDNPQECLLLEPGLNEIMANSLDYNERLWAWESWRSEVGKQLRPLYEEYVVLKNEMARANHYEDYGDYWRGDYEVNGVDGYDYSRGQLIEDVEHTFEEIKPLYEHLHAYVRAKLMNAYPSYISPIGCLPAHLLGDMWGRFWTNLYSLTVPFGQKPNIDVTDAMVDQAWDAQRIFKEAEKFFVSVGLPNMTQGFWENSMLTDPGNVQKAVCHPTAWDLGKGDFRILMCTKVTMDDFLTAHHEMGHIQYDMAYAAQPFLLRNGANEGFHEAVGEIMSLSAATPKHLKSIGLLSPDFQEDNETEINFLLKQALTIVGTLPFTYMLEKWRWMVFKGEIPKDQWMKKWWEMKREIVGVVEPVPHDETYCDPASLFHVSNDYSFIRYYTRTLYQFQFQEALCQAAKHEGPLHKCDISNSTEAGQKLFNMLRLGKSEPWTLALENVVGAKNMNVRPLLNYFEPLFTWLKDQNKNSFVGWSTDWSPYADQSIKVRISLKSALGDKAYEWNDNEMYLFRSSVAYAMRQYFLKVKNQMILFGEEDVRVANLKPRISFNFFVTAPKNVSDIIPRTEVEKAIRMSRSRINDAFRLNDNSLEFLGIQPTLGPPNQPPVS
In words: ACE-2 Competitive Substrate Assay (ACS Assay). The format is biochemical. As to conditions: Ki class; compounds tested in 5% DMSO, 12 compound concentrations, Ki=Kiapp/(1+[S]/Km); read-out: Human ACE-2 Activity.
As to `CC(C)C[C@H](N[C@@H](Cn1ccn(Cc2ccc(F)cc2)c1=O)C(=O)O)C(=O)O` [NQ, 2-{1-Carboxy-2-[3-(4-fluoro-benzyl)-2-oxo-2,3-dihydro-imidazol-1-yl]-ethylamino}-4-methyl-pentanoic acid], the Ki was in the range of 100 to 500 nM.
Same read-out and setting: for `CC(C)C[C@H](N[C@@H](Cc1ccc(-c2ccccc2)o1)C(=O)O)C(=O)O` [NR, (S,S)-2-[1-Carboxy-2-(5-phenyl-furan-2-yl)-ethylamino]-4-methyl-pentanoic acid] the value was 100 to 500 nM; for `CC(C)C[C@H](N[C@@H](Cc1ccc(-c2cc(Cl)cc(Cl)c2)o1)C(=O)O)C(=O)O` [NS, (S,S)-2-{1-Carboxy-2-[5-(3,5-dichlorophenyl)-furan-2-yl]-ethylamino}-4-methyl-pentanoic acid], 100 to 500 nM.
With `Cc1cc(C)cc(-c2ccc(C[C@H](N[C@@H](CC(C)C)C(=O)O)C(=O)O)o2)c1` [NT, (S,S)-2-{1-Carboxy-2-[5-(3,5-dimethyl-phenyl)-furan-2-yl]-ethylamino}-4-methyl-pentanoic acid], the Ki was 100 to 500 nM.
For `CC(C)C[C@H](N[C@@H](Cc1ccc(-c2cc(F)cc(F)c2)o1)C(=O)O)C(=O)O` [NU, (S,S)-2-{1-Carboxy-2-[5-(3,5-difluoro-phenyl)-furan-2-yl]-ethylamino}-4-methyl-pentanoic acid], the Ki is above 500 nM.
Take `CC(C)C[C@H](N[C@@H](Cc1ccc(-c2ccsc2)o1)C(=O)O)C(=O)O` [NV, (S,S)-2-[1-Carboxy-2-(5-thiophen-3-yl-furan-2-yl)-ethylamino]-4-methyl-pentanoic acid]: the Ki is above 500 nM.
As for `Cc1ccc2nc(NC(=O)C[C@H](N[C@@H](CC(C)C)C(=O)O)C(=O)O)sc2c1` [NW, 2-[1-Carboxy-2-(6-methyl-benzothiazol-2-ylcarbamoyl)-ethylamino]-4-methyl-pentanoic acid], the Ki lay in the range of 100 to 500 nM.
On the same count and under the same terms, for `CC(C)C[C@H](N[C@@H](Cc1ccc(O)cc1)C(=O)O)C(=O)O` [NX, 2-[1-Carboxy-2-(4-hydroxy-phenyl)-ethylamino]-4-methyl-pentanoic acid] the value was above 500 nM.
On the same count and under the same terms, for `CC(C)C[C@H](N[C@@H](Cc1cccc(OCc2cc(Cl)cc(Cl)c2)c1)C(=O)O)C(=O)O` [NY, 2-[1-Carboxy-2-[3-(3,5-dichloro-benzyloxy)-phenyl]-ethylamino]-4-methyl-pentanoic acid] the value was below 100 nM; for `CC(C)C[C@H](N[C@@H](Cc1cccc(OCc2ccncc2)c1)C(=O)O)C(=O)O` [NZ, S,S-2-{1-Carboxy-2-[3-(pyridin-4-ylmethoxy)-phenyl]-ethylamino}-4-methyl pentanoic acid], above 500 nM.
Still for that read-out and setting: to `Cc1cc(C)cc(COc2cccc(C[C@H](N[C@@H](CC(C)C)C(=O)O)C(=O)O)c2)c1` [OA, 2-[1-Carboxy-2-[3-(3,5-dimethyl-benzyloxy)-phenyl]-ethylamino]-4-methyl-pentanoic acid] belongs above 500 nM.
With `CC(C)C[C@H](N[C@@H](Cc1cccc(OCc2ccc(Cl)cc2)c1)C(=O)O)C(=O)O` [OB, 2-[1-Carboxy-2-[3-(4-chloro-benzyloxy)-phenyl)-ethylamino]-4-methyl-pentanoic acid], the Ki is 100 to 500 nM.
The same measure, in the same setting: to `CC(C)CC(NC(Cc1cccc(OCc2ccc(C(F)(F)F)cc2C(F)(F)F)c1)C(=O)O)C(=O)O` (centres unmarked) [OC, 2-{2-[3-(2,4-Bis-trifluoromethyl-benzyloxy)-phenyl]-1-carboxy-ethylamino}-4-methyl-pentanoic acid] belongs above 500 nM; to `CC(C)C[C@H](N[C@@H](Cc1ccn(-c2ccccc2)n1)C(=O)O)C(=O)O` [OD, 2-[1-carboxy-2-(1phenyl-1H-pyrazol-3-yl)-ethylamino]-4-methyl-pentanoic acid], 100 to 500 nM.

The experiment is the same for the next values; noted with them: Ki class; compounds tested in 5% DMSO, 12 concentrations; read-out: Human ACE-2 Activity.
Regarding `CC(N[C@@H](Cc1ccccc1)C(=O)O)C(=O)O` (some centres unmarked) [O, 2-(1-Carboxy-ethylamino)-3-phenyl-propionic acid], the Ki was above 500 nM.

The experiment is the same for the next values; noted with them: Table 3, very good ACE-2 inhibiting compounds; species not given; read-out: ACE-2 Activity, Ki.
On to `Cc1ccc2nc(NC(=O)C[C@H](N[C@@H](CC(C)C)C(=O)O)C(=O)O)sc2c1` [NW, 2-[1-Carboxy-2-(6-methyl-benzothiazol-2-ylcarbamoyl)-ethylamino]-4-methyl-pentanoic acid], for which the Ki is below 50 nM.
Take `CC(C)C[C@H](N[C@@H](Cc1cccc(OCc2cc(Cl)cc(Cl)c2)c1)C(=O)O)C(=O)O` [NY, 2-[1-Carboxy-2-[3-(3,5-dichloro-benzyloxy)-phenyl]-ethylamino]-4-methyl-pentanoic acid]: the Ki lay in the range of 50 to 100 nM.
